Test results: patent US5477857A, “Diagnostic uses of hydrazinoadenosines” (priority 1993, dated 1995)

Tests used:
[1] = tested on: circumflex coronary artery; experiment: Circumflex coronary blood flow in anesthetized dog, electromagnetic flow probes; assay type: in vivo; conditions: for increase in circumflex coronary blood flow: adenosine 372 μg/kg/min, Compound A 1.0 μg/kg/min
Protocol: An anesthetized dog was prepared for cardiovascular function testing.

[2] = Systemic blood pressure response in anesthetized dog; conditions: infusion: adenosine 372 μg/kg/min, Compound A 1 μg/kg/min
Protocol: An anesthetized dog was prepared for cardiovascular function testing. Electromagnetic flow probes were placed on the circumflex coronary artery and the left anterior descending coronary artery. Systemic systolic and diastolic blood pressure and heart rate were also measured.

[3] = tested on: circumflex coronary artery; experiment: Thallium-201 scintigram in anesthetized dogs with stenosed circumflex coronary artery; assay type: in vivo; conditions: dog, adenosine 372 μg/kg/min for 6 minutes, Compound A 0.6 μg/kg/min
Description: Dogs were anesthetized and their circumflex coronary artery was stenosed to produce a cardiac perfusion deficit.

coronary arterioles = conditions: background, cited from earlier work
[4] = literature; cited from earlier work
A2a (coronary) = A2a (coronary) (Cavia porcellus, UniProt P46616)
Protocol: An isolated guinea pig heart preparation was set up using well-known techniques. The heart was perfused with a constant flow pump through the coronary vessels with a oxygenated balanced salt solution. The coronary perfusion pressure and the EKG were measured. Under constant flow, a decrease in coronary perfusion pressure indicates dilation (A2a effect).

A1 (EKG) = biological target: T1, A1 (EKG) (Cavia porcellus, UniProt P47745); experiment: A50 for decrease in heart rate or conduction velocity on the EKG (A1 effect) in the isolated guinea pig heart
T1 construct: An isolated guinea pig heart preparation was set up using well-known techniques; from tissue; host or cells: isolated perfused guinea pig heart
T1 sequence (P47745 1-326): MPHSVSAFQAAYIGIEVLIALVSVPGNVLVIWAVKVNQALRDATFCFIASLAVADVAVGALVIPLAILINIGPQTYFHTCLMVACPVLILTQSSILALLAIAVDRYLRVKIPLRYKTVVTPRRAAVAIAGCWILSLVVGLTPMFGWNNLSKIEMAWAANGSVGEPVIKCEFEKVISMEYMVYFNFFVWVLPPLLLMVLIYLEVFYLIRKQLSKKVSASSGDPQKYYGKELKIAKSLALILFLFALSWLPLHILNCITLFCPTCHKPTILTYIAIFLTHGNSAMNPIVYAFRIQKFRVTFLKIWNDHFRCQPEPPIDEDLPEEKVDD

[5] = infusion: adenosine 372 μg/kg/min, Compound A 1 μg/kg/min

Sequence of A2a (coronary) (P46616 whole entry, the tested form may be a part): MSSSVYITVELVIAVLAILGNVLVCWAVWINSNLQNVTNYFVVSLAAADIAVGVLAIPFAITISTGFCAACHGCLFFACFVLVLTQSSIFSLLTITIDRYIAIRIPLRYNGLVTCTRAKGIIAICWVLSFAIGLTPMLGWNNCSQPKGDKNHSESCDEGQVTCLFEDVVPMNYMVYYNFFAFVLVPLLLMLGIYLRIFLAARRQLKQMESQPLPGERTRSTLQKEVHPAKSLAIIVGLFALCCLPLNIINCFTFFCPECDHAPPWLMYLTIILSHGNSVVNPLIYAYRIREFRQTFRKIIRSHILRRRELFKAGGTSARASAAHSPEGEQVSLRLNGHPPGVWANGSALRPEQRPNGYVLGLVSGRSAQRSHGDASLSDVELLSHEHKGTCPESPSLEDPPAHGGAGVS

Compound	increase in circumflex coronary blood flow [1]	CHANGE IN […] FLOW [1, 5]	CHANGE IN SYSTOLIC BLOOD PRESSURE [2]	DURATION OF RESPONSE [2]	perfusion defect shown on thallium-201 scintigram [3]	duration of coronary blood flow effect (coronary arterioles)	heart block (coronary arterioles; particularly at doses near 1 mg/kg)	duration of significant hypotensive response [4]	reflex tachycardia [4]	S[…] A1/A2a (A2a (coronary); A50 EKG (A1) over A50 coronary (A2a))	potency relative to adenosine in causing coronary vasodilation (A2a (coronary); isolated guinea pig heart, vs adenosine)	EC50 (A2a (coronary); read-out: A50 CORONARY (A2a EFFECT), isolated guinea pig heart, concentration producing a 50% maximal response)	EC50 (A1 (EKG))	CHANGE IN CIRCUMFLEX CORONARY FLOW [1, 5]
Nc1ncnc2c1ncn2[C@@H]1O[C@H](CO)[C@@H](O)[C@H]1O [Adenosine, adenosine]	300%	+300%	-25%	5 min	clearly showed a perfusion defect	short-lasting	even blocks (stops) the heart beat							
CCNC(=O)[C@H]1O[C@@H](n2cnc3c(N)nc(NCCc4ccc(CCC(=O)O)cc4)nc32)[C@H](O)[C@@H]1O [CGS 21680]								more than 24 hrs	significant reflex tachycardia					
Nc1nc(NN=CC2CCCCC2)nc2c1ncn2[C@@H]1O[C@H](CO)[C@@H](O)[C@H]1O [Compound A]	500%			15 min						15,000	250 times	0.0002 µM	3 µM	+500%
